Reference: patent publication US8153773B2, “Synthesis and use of anti-reverse phosphorothioate analogs of the messenger RNA cap” (Board of Supervisors of Louisiana State University and …, priority 2007, dated 2012)

Legend:
murine eIF4E (28-217) = molecular target: T1, murine eIF4E (28-217) (Mus musculus, UniProt P63073); assay: Binding affinities for eIF4E by fluorescence quenching; design: Cap - eIF4E KAS: unit not given here; conditions: for ΔG°: binding free energy calculated from KAS; for ΔG° / KAS: murine eIF4E (28-217); for Cap - eIF4E KAS / KAS: equilibrium association constant; for Cap - eIF4E KAS: mouse eIF4E (amino acids 28-217), 20° C.; for KAS: fluorescence quenching; for affinity for eIF4E (KAS) relative to m2^7,2′-OGpppG: fold higher than the parent ARCA; for affinity for eIF4E (KAS) of D1 relative to D2 diastereomer: fold higher than the D2 member
T1 construct: (28-217) to phosphorothioate cap analogs, as determined
Procedure: Binding affinities of S analogs for murine eIF4E were determined by fluorescence quenching. Fluorescence titration measurements were carried out on an LS-50B spectrofluorometer (Perkin Elmer Co.) in 50 mM HEPES/KOH (pH 7.2), 100 mM KCl, 0.5 mM EDTA, 1 mM DTT at 20.0±0.2° C. Aliquots of 1 μl increasing concentration of cap analogue solutions were added to 1.4 ml of […] solutions. Fluorescence intensities (excitation at 280 nm with 2.5 nm bandwidth and detection at 337 nm with 4 nm bandwidth and 290 nm cut-off filter) were corrected taking into account sample dilution and the inner filter effect. Equilibrium association constants (KAS) were determined by fitting the theoretical dependence of the fluorescence intensity on the total concentration of cap analogue to the experimental data points according to equation described previously (See A. Niedzwiecka et al., “Biophysical studies of eIF4E cap-binding protein: recognition of mRNA 5′ cap structure and synthetic fragments of eIF4G and 4E-BP1 proteins,” J. Mol. Biol., vol. 319, pp. 615-635 (2002)). The concentration of protein was fitted as a free parameter of equilibrium equation showing amount of “active” protein. The final KAS was calculated as a weighted average of three to ten independent titrations, with the weights taken as the reciprocals of the numerical standard deviations squared. Numerical nonlinear least-squares regression analysis was performed using ORGIN 6.0 (Microcal Software Inc., USA). The Gibbs free energy of binding was calculated from the KAS value according to the standard equation ΔG°=−RTlnKAS.

DcpS [1] = molecular target: T2, DcpS (Homo sapiens, UniProt Q96C86); assay: Enzymatic hydrolysis by human DcpS; type: biochemical; design: key: the analogs assigned as resistant remained completely undigested under the applied conditions; the analogs assigned as hydrolyzed were hydrolyzed by DcpS with efficiency comparable to the respective unmodified parent compound; conditions: conditions giving complete degradation of unmodified parent within 40-90 min, RP HPLC
T2 sequence (Q96C86 1-337): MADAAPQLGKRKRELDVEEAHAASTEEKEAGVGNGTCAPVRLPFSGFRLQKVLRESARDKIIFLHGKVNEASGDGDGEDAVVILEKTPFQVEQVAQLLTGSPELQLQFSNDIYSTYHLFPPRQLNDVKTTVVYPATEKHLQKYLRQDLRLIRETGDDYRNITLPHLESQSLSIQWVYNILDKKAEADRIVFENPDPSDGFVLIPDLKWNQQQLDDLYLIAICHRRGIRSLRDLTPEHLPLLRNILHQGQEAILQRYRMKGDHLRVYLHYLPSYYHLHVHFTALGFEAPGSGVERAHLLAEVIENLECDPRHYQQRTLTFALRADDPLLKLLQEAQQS
Procedure: (§1) Human and nematode DcpS were expressed in Escherichia coli according to the procedures described previously (L. S. Cohen et al., “Nematode m7 GpppG and m3(2,2,7)GpppG decapping: activities in Ascaris embryos and characterization of C. elegans scavenger DcpS,” RNA, vol. 10, pp. 1609-1624 (2004)). Both proteins were stored at −80° C. in 20 mM Tris buffer, pH 7.5, containing 50 mM KCl, 0.2 mM EDTA, 1 mM DTT, 0.5 mM PMSF, and 20% glycerol. An appropriate cap analog at 1 mM concentration was treated with 5.0 or 7.0 μl of DcpS (from human or C. elegans, respectively) in 500 μl of 50 mM TRIS buffer, pH=7.9, containing 20 mM of MgCl2 and 60 mM of (NH4)2SO4 at 37° C. for 60-90 min. Every 15-20 min a 100 μl sample was collected from the reaction mixture and deactivated by incubation in 90° C. for 3 min. Collected samples were analyzed without further treatment by analytical RP HPLC using a linear gradient of methanol in 0.1 M KH2PO4, pH=6.0, from 0-50% within 15 min and UV-detection at 260 nm.
(§2) The new series of S-analogs were subjected to in vitro enzymatic hydrolysis catalyzed by DcpS from both human and C. elegans sources. In all experiments, the corresponding unmodified cap analog was used as a positive control, i.e., m^7GpppG for non-ARCA S-analogs and m2^7,2′-OGpppG for S-ARCAs. The amount of DcpS enzyme was optimized to provide complete degradation of the control substrate within 40-90 min. The samples collected from reaction mixtures at various time intervals were analyzed by RP HPLC (as described in Materials and Methods).
(§3) In Table 4, cap analogs at 4 μM concentration were subjected to enzymatic digestion by DcpS in conditions leading to complete degradation of the unmodified parent compound (i.e. m^7GpppG for non-ARCA S-analogs and m2^7,2′-OGpppG for ARCAs) within 40-90 min. Samples collected from reaction mixtures at various time intervals were analysed by RP HPLC with UV detection at 260 nm as described in Materials and Methods. […] The result was unchanged even if the reaction time was extended to 24 h, various amounts of enzyme were used, and composition of the reaction buffer was modified.

DcpS [2] = molecular target: T3, DcpS (Caenorhabditis elegans, UniProt G5EFS4); assay: Enzymatic hydrolysis by C. elegans DcpS; type: biochemical; design: key: the analogs assigned as resistant remained completely undigested under the applied conditions; the analogs assigned as hydrolyzed were hydrolyzed by DcpS with efficiency comparable to the respective unmodified parent compound; conditions: conditions giving complete degradation of unmodified parent within 40-90 min, RP HPLC
T3 sequence (G5EFS4 1-311): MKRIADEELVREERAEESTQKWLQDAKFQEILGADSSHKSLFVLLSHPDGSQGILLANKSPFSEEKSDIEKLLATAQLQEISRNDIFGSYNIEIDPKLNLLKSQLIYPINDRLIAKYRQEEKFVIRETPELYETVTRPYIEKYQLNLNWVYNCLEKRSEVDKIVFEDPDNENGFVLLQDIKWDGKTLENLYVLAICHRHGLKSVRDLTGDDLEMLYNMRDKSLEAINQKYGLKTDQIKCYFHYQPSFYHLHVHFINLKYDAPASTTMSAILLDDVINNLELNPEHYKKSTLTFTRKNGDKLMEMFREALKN
Procedure: as §1, §2, §3

T1 sequence (P63073 28-217): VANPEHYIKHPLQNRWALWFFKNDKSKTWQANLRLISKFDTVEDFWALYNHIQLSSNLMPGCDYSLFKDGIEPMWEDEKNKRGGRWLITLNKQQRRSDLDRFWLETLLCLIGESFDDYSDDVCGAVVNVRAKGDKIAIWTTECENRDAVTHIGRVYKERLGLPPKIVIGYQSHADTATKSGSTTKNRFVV

CO[C@@H]1[C@H](O)[C@@H](COP(=O)(O)OP(=O)([O-])OP(=O)(O)OC[C@H]2O[C@@H](n3cnc4c(=O)[nH]c(N)nc43)[C@H](O)[C@@H]2O)O[C@H]1n1c[n+](C)c2c(O)nc(N)nc21 [m2^7,2′-OGpppG, reference compound]
ΔG° (murine eIF4E (28-217)): -9.43 kcal/mol | Cap - eIF4E KAS (murine eIF4E (28-217)): 10.8 ± 0.3 | KAS (murine eIF4E (28-217)): 10.8 ± 0.3 µM⁻¹ | Resistance to enzymatic hydrolysis by DcpS (human) (DcpS [1]): hydrolyzed | Resistance to enzymatic hydrolysis by DcpS (from C. elegans) (DcpS [2]): hydrolyzed

m2^7,2′-OGpppsG (D1) [Compound 4a]
ΔG° (murine eIF4E (28-217)): -9.76 kcal/mol | Cap - eIF4E KAS (murine eIF4E (28-217)): 34.3 ± 1.3 | KAS (murine eIF4E (28-217)): 19.2 ± 0.8 µM⁻¹ | affinity for eIF4E (KAS) relative to m2^7,2′-OGpppG (murine eIF4E (28-217)): 3 fold | Resistance to enzymatic hydrolysis by DcpS (human) (DcpS [1]): hydrolyzed | Resistance to enzymatic hydrolysis by DcpS (from C. elegans) (DcpS [2]): hydrolyzed

m2^7,2′-OGpppsG (D2) [Compound 4b]
ΔG° (murine eIF4E (28-217)): -9.62 kcal/mol | Cap - eIF4E KAS (murine eIF4E (28-217)): 12.9 ± 0.9 | KAS (murine eIF4E (28-217)): 15.0 ± 0.6 µM⁻¹ | Resistance to enzymatic hydrolysis by DcpS (human) (DcpS [1]): hydrolyzed | Resistance to enzymatic hydrolysis by DcpS (from C. elegans) (DcpS [2]): hydrolyzed

m2^7,2′-OGppspG (D1) [Compound 5a]
ΔG° (murine eIF4E (28-217)): -10.23 ± 0.02 kcal/mol | Cap - eIF4E KAS (murine eIF4E (28-217)): 42.1 ± 1.6 | KAS (murine eIF4E (28-217)): 43.1 ± 1.4 µM⁻¹ | affinity for eIF4E (KAS) of D1 relative to D2 diastereomer (murine eIF4E (28-217)): 2 fold | Resistance to enzymatic hydrolysis by DcpS (human) (DcpS [1]): hydrolyzed | Resistance to enzymatic hydrolysis by DcpS (from C. elegans) (DcpS [2]): hydrolyzed

m2^7,2′-OGppspG (D2) [Compound 5b]
ΔG° (murine eIF4E (28-217)): -9.77 kcal/mol | Cap - eIF4E KAS (murine eIF4E (28-217)): 18.3 ± 3.4 | KAS (murine eIF4E (28-217)): 19.3 ± 2.2 µM⁻¹ | Resistance to enzymatic hydrolysis by DcpS (human) (DcpS [1]): hydrolyzed | Resistance to enzymatic hydrolysis by DcpS (from C. elegans) (DcpS [2]): hydrolyzed

m2^7,2′-OGpsppG (D1) [Compound 6a]
ΔG° (murine eIF4E (28-217)): -10.12 kcal/mol | Cap - eIF4E KAS (murine eIF4E (28-217)): 19.3 ± 1.8 | KAS (murine eIF4E (28-217)): 35.2 ± 1.1 µM⁻¹ | affinity for eIF4E (KAS) of D1 relative to D2 diastereomer (murine eIF4E (28-217)): 3 fold | affinity for eIF4E (KAS) relative to m2^7,2′-OGpppG (murine eIF4E (28-217)): 3 fold | Resistance to enzymatic hydrolysis by DcpS (human) (DcpS [1]): resistant | Resistance to enzymatic hydrolysis by DcpS (from C. elegans) (DcpS [2]): resistant

m2^7,2′-OGpsppG (D2) [Compound 6b]
ΔG° (murine eIF4E (28-217)): -9.53 kcal/mol | Cap - eIF4E KAS (murine eIF4E (28-217)): 15.4 ± 0.5 | KAS (murine eIF4E (28-217)): 12.9 ± 0.4 µM⁻¹ | Resistance to enzymatic hydrolysis by DcpS (human) (DcpS [1]): resistant | Resistance to enzymatic hydrolysis by DcpS (from C. elegans) (DcpS [2]): resistant
